In ChEMBL document CHEMBL3885881, “DrugMatrix”:
Where “and” joins values, the source holds several entries; their conditions need not be identical. Equal entries are not always repeated.

Organism: Rattus norvegicus
Experiment: DrugMatrix - Regimen: Daily Repeat
Type: toxicity, organism-based, Sprague-Dawley
Parameters: regimen Daily Repeat, gender Male, age 6-8 weeks
Settings: in vivo, ip, route intraperitoneal, vehicle 100 % SALINE; for ABSOLUTE BASOPHIL / ABSOLUTE EOSINOPHIL / ABSOLUTE LYMPHOCYTE / ABSOLUTE MONOCYTE / ABSOLUTE SEGMENTED NEUTROPHIL / BASOPHIL / EOSINOPHIL / ERYTHROCYTE COUNT / HEMATOCRIT / HEMOGLOBIN / LEUKOCYTE COUNT / LYMPHOCYTE / MEAN CORPUSCULAR HEMOGLOBIN / MEAN CORPUSCULAR HEMOGLOBIN CONCENTRATION / MEAN CORPUSCULAR VOLUME / MONOCYTE / NEUTROPHIL / PLATELET COUNT: tissue Blood; for ALANINE AMINOTRANSFERASE / ALBUMIN / ALKALINE PHOSPHATASE / ASPARTATE AMINOTRANSFERASE / BLOOD UREA NITROGEN / CARBON DIOXIDE / CHLORIDE / CHOLESTEROL / CREATINE PHOSPHOKINASE / CREATININE / GLUCOSE / LACTATE DEHYDROGENASE / LIPASE / PHOSPHORUS / POTASSIUM / SODIUM / TOTAL BILIRUBIN / TOTAL PROTEIN / URIC ACID: tissue Plasma
[1] = 0 mg/kg, 120 h, dose level Control, time 5 day
[2] = 0 mg/kg, […], dose level Control, time 14 day
[3] = 0 mg/kg, […], dose level Control, time 28 day
[4] = 40 mg/kg, 120 h, dose level High, time 5 day
[5] = 40 mg/kg, […], dose level High, time 14 day
[6] = 40 mg/kg, […], dose level High, time 28 day

CCN[C@@H]1C[C@H](N)[C@@H](O[C@H]2OC(CN)=CC[C@H]2N)[C@H](O)[C@H]1O[C@H]1OC[C@](C)(O)[C@H](NC)[C@H]1O [NETILMICIN]
ABSOLUTE BASOPHIL [1]: 32 cells/µL | ABSOLUTE EOSINOPHIL [1]: 110 cells/µL | ABSOLUTE LYMPHOCYTE [1]: 6630 cells/µL | ABSOLUTE MONOCYTE [1]: 140 cells/µL | ABSOLUTE SEGMENTED NEUTROPHIL [1]: 1170 cells/µL | BASOPHIL [1]: 0.38% and 0.35% | EOSINOPHIL [1]: 1.28% and 0.62% | ERYTHROCYTE COUNT [1]: 7.45 x10E6/uL and 7.26 x10E6/uL | HEMATOCRIT [1]: 45.74% and 47.97% | HEMOGLOBIN [1]: 14.72 G/DL and 15.38 G/DL | LEUKOCYTE COUNT [1]: 8.11 x10E3/uL and 8.68 x10E3/uL | LYMPHOCYTE [1]: 81.3% and 86.77% | MEAN CORPUSCULAR HEMOGLOBIN [1]: 19.76 pg and 21.18 pg | MEAN CORPUSCULAR HEMOGLOBIN CONCENTRATION [1]: 32.16 G/DL and 32.05 G/DL | MEAN CORPUSCULAR VOLUME [1]: 61.38 fL and 66.15 fL | MONOCYTE [1]: 1.76% and 1.57% | NEUTROPHIL [1]: 14.9% and 9.53% | PLATELET COUNT [1]: 1322.4 x10E3/uL and 1786 x10E3/uL | ALANINE AMINOTRANSFERASE [1]: 25.8 u/L and 20.5 u/L | ALBUMIN [1]: 3.64 G/DL and 4.35 G/DL | ALKALINE PHOSPHATASE [1]: 233.6 u/L and 300 u/L | ASPARTATE AMINOTRANSFERASE [1]: 81.4 u/L and 86.75 u/L | BLOOD UREA NITROGEN [1]: 14.4 mg/dL and 17 mg/dL | CARBON DIOXIDE [1]: 29 mmol/L | CHLORIDE [1]: 105.6 MEQ/L and 106.25 MEQ/L | CHOLESTEROL [1]: 69.2 mg/dL and 51.25 mg/dL | CREATINE PHOSPHOKINASE [1]: 384.75 u/L | CREATININE [1]: 0.56 mg/dL and 0.47 mg/dL | GLUCOSE [1]: 125.4 mg/dL and 128.75 mg/dL | LACTATE DEHYDROGENASE [1]: 105.4 u/L and 145 u/L | LIPASE [1]: 22.4 u/L and 13.25 u/L | PHOSPHORUS [1]: 11.48 mg/dL and 11.8 mg/dL | POTASSIUM [1]: 5.52 MEQ/L and 6.58 MEQ/L | SODIUM [1]: 147 MEQ/L and 151 MEQ/L | TOTAL BILIRUBIN [1]: 0.2 mg/dL and 0.33 mg/dL | TOTAL PROTEIN [1]: 6.1 G/DL and 6.53 G/DL | URIC ACID [1]: 1.06 mg/dL and 1.95 mg/dL | ABSOLUTE BASOPHIL [2]: 130 cells/µL | ABSOLUTE EOSINOPHIL [2]: 140 cells/µL | ABSOLUTE LYMPHOCYTE [2]: 13500 cells/µL | ABSOLUTE MONOCYTE [2]: 400 cells/µL | ABSOLUTE SEGMENTED NEUTROPHIL [2]: 2330 cells/µL | HEMATOCRIT [2]: 45.98% | ABSOLUTE BASOPHIL [3]: 91 cells/µL | ABSOLUTE EOSINOPHIL [3]: 110 cells/µL | ABSOLUTE LYMPHOCYTE [3]: 9910 cells/µL | ABSOLUTE MONOCYTE [3]: 210 cells/µL | ABSOLUTE SEGMENTED NEUTROPHIL [3]: 1560 cells/µL | BASOPHIL [3]: 0.77% | EOSINOPHIL [3]: 0.92% | ERYTHROCYTE COUNT [3]: 8.21 x10E6/uL | HEMATOCRIT [3]: 47.53% | HEMOGLOBIN [3]: 15.65 G/DL | LEUKOCYTE COUNT [3]: 11.91 x10E3/uL | LYMPHOCYTE [3]: 83.34% | MEAN CORPUSCULAR HEMOGLOBIN [3]: 19.07 pg | MEAN CORPUSCULAR HEMOGLOBIN CONCENTRATION [3]: 32.93 G/DL | MEAN CORPUSCULAR VOLUME [3]: 57.9 fL | MONOCYTE [3]: 1.68% | NEUTROPHIL [3]: 12.97% | PLATELET COUNT [3]: 1323.8 x10E3/uL | CARBON DIOXIDE [2]: 25 mmol/L | ALANINE AMINOTRANSFERASE [3]: 30 u/L | ALBUMIN [3]: 3.71 G/DL | ALKALINE PHOSPHATASE [3]: 186.8 u/L | ASPARTATE AMINOTRANSFERASE [3]: 78.2 u/L | BLOOD UREA NITROGEN [3]: 14.2 mg/dL | CHLORIDE [3]: 105.4 MEQ/L | CHOLESTEROL [3]: 44.9 mg/dL | CREATINE PHOSPHOKINASE [3]: 334.3 u/L | CREATININE [3]: 0.6 mg/dL | GLUCOSE [3]: 147.2 mg/dL | LACTATE DEHYDROGENASE [3]: 123.1 u/L | LIPASE [3]: 9.6 u/L | PHOSPHORUS [3]: 10.01 mg/dL | POTASSIUM [3]: 6.57 MEQ/L | SODIUM [3]: 149.5 MEQ/L | TOTAL BILIRUBIN [3]: 0.21 mg/dL | TOTAL PROTEIN [3]: 6.66 G/DL | URIC ACID [3]: 1.26 mg/dL | ABSOLUTE BASOPHIL [4]: 100 cells/µL | ABSOLUTE EOSINOPHIL [4]: 100 cells/µL | ABSOLUTE LYMPHOCYTE [4]: 9410 cells/µL | ABSOLUTE MONOCYTE [4]: 270 cells/µL | ABSOLUTE SEGMENTED NEUTROPHIL [4]: 2070 cells/µL | BASOPHIL [4]: 0.82% and 0.23% | EOSINOPHIL [4]: 0.84% and 0.53% | ERYTHROCYTE COUNT [4]: 7.28 x10E6/uL and 7.2 x10E6/uL | HEMATOCRIT [4]: 44.78% and 47.4% | HEMOGLOBIN [4]: 14.6 G/DL and 14.93 G/DL | LEUKOCYTE COUNT [4]: 12 x10E3/uL and 6.78 x10E3/uL | LYMPHOCYTE [4]: 78.86% and 87.63% | MEAN CORPUSCULAR HEMOGLOBIN [4]: 20.02 pg and 20.77 pg | MEAN CORPUSCULAR HEMOGLOBIN CONCENTRATION [4]: 32.56 G/DL and 31.5 G/DL | MEAN CORPUSCULAR VOLUME [4]: 61.44 fL and 65.9 fL | MONOCYTE [4]: 2.18% and 1.53% | NEUTROPHIL [4]: 16.76% and 9.17% | PLATELET COUNT [4]: 1295.4 x10E3/uL and 1697.67 x10E3/uL | ALANINE AMINOTRANSFERASE [4]: 28.4 u/L and 20.25 u/L | ALBUMIN [4]: 3.44 G/DL and 4.28 G/DL | ALKALINE PHOSPHATASE [4]: 235.6 u/L and 305.25 u/L | ASPARTATE AMINOTRANSFERASE [4]: 91.8 u/L and 87.25 u/L | BLOOD UREA NITROGEN [4]: 12 mg/dL and 14.25 mg/dL | CARBON DIOXIDE [4]: 24.75 mmol/L | CHLORIDE [4]: 108.2 MEQ/L and 108.25 MEQ/L | CHOLESTEROL [4]: 53.8 mg/dL and 53 mg/dL | CREATINE PHOSPHOKINASE [4]: 194.6 u/L and 310.75 u/L | CREATININE [4]: 0.5 mg/dL and 0.47 mg/dL | GLUCOSE [4]: 137 mg/dL and 119.5 mg/dL | LACTATE DEHYDROGENASE [4]: 83.75 u/L and 121.25 u/L | LIPASE [4]: 16 u/L and 7 u/L | PHOSPHORUS [4]: 10.04 mg/dL and 12.5 mg/dL | POTASSIUM [4]: 6.52 MEQ/L and 5.8 MEQ/L | SODIUM [4]: 151.2 MEQ/L and 152.75 MEQ/L | TOTAL BILIRUBIN [4]: 0.12 mg/dL and 0.28 mg/dL | TOTAL PROTEIN [4]: 5.86 G/DL and 6.35 G/DL | URIC ACID [4]: 1.12 mg/dL and 2.02 mg/dL | ABSOLUTE BASOPHIL [5]: 76 cells/µL | ABSOLUTE EOSINOPHIL [5]: 100 cells/µL | ABSOLUTE LYMPHOCYTE [5]: 7150 cells/µL | ABSOLUTE MONOCYTE [5]: 160 cells/µL | ABSOLUTE SEGMENTED NEUTROPHIL [5]: 980 cells/µL | ABSOLUTE BASOPHIL [6]: 110 cells/µL | ABSOLUTE EOSINOPHIL [6]: 110 cells/µL | ABSOLUTE LYMPHOCYTE [6]: 11000 cells/µL | ABSOLUTE MONOCYTE [6]: 220 cells/µL | ABSOLUTE SEGMENTED NEUTROPHIL [6]: 1680 cells/µL | BASOPHIL [6]: 0.84% | EOSINOPHIL [6]: 0.81% | ERYTHROCYTE COUNT [6]: 8.07 x10E6/uL | HEMATOCRIT [6]: 45.66% | HEMOGLOBIN [6]: 15.06 G/DL | LEUKOCYTE COUNT [6]: 13.21 x10E3/uL | LYMPHOCYTE [6]: 83.38% | MEAN CORPUSCULAR HEMOGLOBIN [6]: 18.66 pg | MEAN CORPUSCULAR HEMOGLOBIN CONCENTRATION [6]: 32.99 G/DL | MEAN CORPUSCULAR VOLUME [6]: 56.56 fL | MONOCYTE [6]: 1.71% | NEUTROPHIL [6]: 12.78% | PLATELET COUNT [6]: 1402.4 x10E3/uL | CARBON DIOXIDE [5]: 27 mmol/L | ALANINE AMINOTRANSFERASE [6]: 27.9 u/L | ALBUMIN [6]: 3.58 G/DL | ALKALINE PHOSPHATASE [6]: 144.2 u/L | ASPARTATE AMINOTRANSFERASE [6]: 86.4 u/L | BLOOD UREA NITROGEN [6]: 16.3 mg/dL | CHLORIDE [6]: 108.5 MEQ/L | CHOLESTEROL [6]: 59.4 mg/dL | CREATINE PHOSPHOKINASE [6]: 139.4 u/L | CREATININE [6]: 0.7 mg/dL | GLUCOSE [6]: 120.4 mg/dL | LACTATE DEHYDROGENASE [6]: 85.6 u/L | LIPASE [6]: 22.9 u/L | PHOSPHORUS [6]: 8.66 mg/dL | POTASSIUM [6]: 5.83 MEQ/L
